According to US12240844B2 (Voronoi, Inc., priority 2019, dated 2025):

Legend:
MDA-MB-468 cell line = experiment: MDA-MB-468 cancer cell proliferation inhibition (Cell Titer-Glo); assay type: cell-based; conditions: Homo sapiens, MDA-MB-468 triple-negative breast cancer cell line, 72 hours
Method: In order to evaluate the cancer cell proliferation inhibitory activity of the compounds of the present invention, the following experiments were performed.
To evaluate the cancer cell proliferation inhibitory effect, the cell growth rate analysis was performed while culturing MDA-MB-231 cell line (Korean Cell Line Bank #30026) and MDA-MB-468 cell line as the triple-negative breast cancer cell line, and SHP-77 (ATCC #CRL-2195) as the small cell lung cancer cell line in DMEM (HyClone #SH30243) and RPMI medium (HyClone #SH3027.01), respectively. More specifically, the cell lines were each plated at 2000 cells/100 μl in each well of a 96-well flat-bottom plate (coming #3903), and then the example compounds having eleven concentrations which were diluted by ⅓ so that the final concentrations were 10.000000, 3.333333, 1.111111, 0.370370, 0.123457, 0.041152, 0.013717, 0.004572, 0.001524, 0.000508 and 0.000169 μM were treated. After 72 hours, 100 μl of Cell Titer-Glo (Promega G7573) was treated, incubated at RT for 10 minutes, and then luminescence was measured using a microplate reader. The measured luminescence degree was calculated as GI50 using Prism (version 8.2 GraphPad) software.
In the table below, the following designations were used for the evaluation of proliferation inhibitory activity.

LRRK2 = LRRK2 (Homo sapiens, UniProt Q5S007); experiment: LRRK2 enzyme inhibition, ADP-Glo kinase assay; assay type: biochemical; design: purchased Invitrogen PR8604B
Procedure, shortened: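 Purified human LRRK2 (25 ng) in 40 mM Tris-HCl pH7.4, 20 mM MgCl2, 0.5 mg/ml BSA, 50 μM DTT with 10 μM ATP and substrate ([…]), 2 h at 25° C. Final compound 50 to 0.000001024 μM, 12-point dilution. ADP-Glo luminescence vs solvent control; IC50 (nM).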

LRRK2 (G2019S) = LRRK2 (G2019S) (Homo sapiens, UniProt Q5S007, G2019S); experiment: LRRK2 G2019S enzyme inhibition, ADP-Glo kinase assay; assay type: biochemical; design: purchased SignalChem L10-12GG
Procedure, shortened: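 Purified human LRRK2 G2019S (16 ng) with 25 μM ATP and 0.2 μg substrate, 2 h at 25° C in 40 mM Tris-HCl pH 7.4, 20 mM MgCl2, 0.5 mg/ml BSA, 50 μM DTT; compound at 12 final concentrations from 50 μM downward. ADP-Glo luminescence versus solvent control gave IC50 (nM).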

[1] = molecular target: T1, human GST-DYRK1A (full length) (Homo sapiens, UniProt Q13627); experiment: GST-DYRK1A enzyme inhibition, ADP-Glo kinase assay; assay type: biochemical; conditions: read-out: DYRK1 IC50
T1 construct: purified human GST-DYRK1A (full length, Thermo scientifics) enzyme; GST; purchased Thermo scientifics
Procedure, shortened: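 Full-length human GST-DYRK1A (10 ng) incubated with 10 uM ATP and specific substrate for 1 h at 25° C in 40 mM Tris-HCl pH 7.4, 20 mM MgCl2, 0.5 mg/mL BSA, 50 uM DTT. ADP formation read by ADP-Glo luminescence; IC50 (nM) versus solvent control, triplicate.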

human GST-CLK1 (129-end) = molecular target: T2, human GST-CLK1 (129-end) (Homo sapiens, UniProt P49759); experiment: GST-CLK1 enzyme inhibition, ADP-Glo kinase assay; assay type: biochemical; conditions: ATP 10 uM
T2 construct: purified human GST-CLK1 (129-end, Signalchem) enzyme; GST; purchased Signalchem
Procedure, shortened: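 GST-CLK1 (129-end, 3 ng) reacted with 10 uM ATP and substrate in 40 mM Tris-HCl pH 7.4, 20 mM MgCl2, 0.5 mg/mL BSA, 50 uM DTT, 1 h at 25° C. ADP-Glo luminescence normalised to solvent control; IC50 from triplicate data.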

TNF-α = TNF-α secretion inhibition in LPS-treated THP-1 cells (ELISA); assay type: cell-based; conditions: Homo sapiens, compound 0.5 μM, LPS 500 ng/ml, 24 hours, read-out: THP-1/TNF-a (% inhib)
Method: (§1) In order to evaluate the cytokine secretion inhibitory efficacy of mononuclear cells, THP-1 cells (ATCC, #TIB-202) as a human-derived monocyte cell line were cultured in RPMI-1640 (Hyclone, SH30027.01) media in which 10% fetal bovine serum (Hyclone, SH30084.03), 1% penicillin streptomycin (Welgene, LS202-02) and 50 μM 2-Mercaptoethanol (Gibco, #21985023) were contained. In the test, 1.5-2×10^5 cells/250 μl per each well were dispensed in a 48-well plate (SPL, #30048) and incubated in an incubator at 37° C. and 5% CO2 for 16 hours, and then the compounds were diluted in DMSO so that the final concentration was 0.5 μM. It was treated with Lipopolysaccharides (LPS) (sigma, #L6529) […]. After treatment with the compound, the LPS was treated so that the final concentration was 500 ng/ml, and then the cell culture fluid was collected after culturing for 24 hours, and the degrees of the cytokines IL-6 (R&D system, #D6050) and TNF-α (R&D system, #DTA00D) contained in the culture fluid were collected using each ELISA kit. After performing the experiment according to the manufacturer's instructions, the absorbance at 450 nm was measured and analyzed using a microplate reader.

THP-1 = THP-1 GI50 (Table 4, method not given); assay type: cell-based; conditions: Homo sapiens; THP-1 cells
IL-6 = IL-6 secretion inhibition in LPS-treated THP-1 cells (ELISA); assay type: cell-based; conditions: Homo sapiens, compound 0.5 μM, LPS 500 ng/ml, 24 hours, read-out: THP1/IL6 (% inhib)
Method: as §1

MDA-MB-231 cell line = experiment: MDA-MB-231 cancer cell proliferation inhibition (Cell Titer-Glo); assay type: cell-based; conditions: Homo sapiens, MDA-MB-231 triple-negative breast cancer cell line, 72 hours
Procedure, shortened: (§2)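 GI50 comes from CellTiter-Glo luminescence, read 10 min after reagent addition at RT, following 72 h compound treatment. Eleven concentrations were used (⅓ steps, highest 10 μM final) on 2000 cells/well. MDA-MB-231 and MDA-MB-468 were grown in DMEM, SHP-77 in RPMI.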

SHP-77 = SHP-77 cancer cell proliferation inhibition (Cell Titer-Glo); assay type: cell-based; conditions: Homo sapiens, SHP77, SHP-77 small cell lung cancer cell line, 72 hours
Procedure, shortened: as §2

T2 sequence (P49759 129-484 limits assumed): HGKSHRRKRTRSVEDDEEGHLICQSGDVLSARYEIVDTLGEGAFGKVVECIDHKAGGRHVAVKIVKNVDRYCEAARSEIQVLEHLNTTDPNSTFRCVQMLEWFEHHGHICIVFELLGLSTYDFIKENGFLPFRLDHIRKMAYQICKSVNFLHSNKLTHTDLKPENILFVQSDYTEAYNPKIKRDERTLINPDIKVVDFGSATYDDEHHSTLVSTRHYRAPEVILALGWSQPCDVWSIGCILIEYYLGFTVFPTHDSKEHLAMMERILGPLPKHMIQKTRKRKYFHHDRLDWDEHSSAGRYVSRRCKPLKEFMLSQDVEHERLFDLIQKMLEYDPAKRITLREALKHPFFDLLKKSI
Sequence of LRRK2 (Q5S007 970-2527 limits assumed): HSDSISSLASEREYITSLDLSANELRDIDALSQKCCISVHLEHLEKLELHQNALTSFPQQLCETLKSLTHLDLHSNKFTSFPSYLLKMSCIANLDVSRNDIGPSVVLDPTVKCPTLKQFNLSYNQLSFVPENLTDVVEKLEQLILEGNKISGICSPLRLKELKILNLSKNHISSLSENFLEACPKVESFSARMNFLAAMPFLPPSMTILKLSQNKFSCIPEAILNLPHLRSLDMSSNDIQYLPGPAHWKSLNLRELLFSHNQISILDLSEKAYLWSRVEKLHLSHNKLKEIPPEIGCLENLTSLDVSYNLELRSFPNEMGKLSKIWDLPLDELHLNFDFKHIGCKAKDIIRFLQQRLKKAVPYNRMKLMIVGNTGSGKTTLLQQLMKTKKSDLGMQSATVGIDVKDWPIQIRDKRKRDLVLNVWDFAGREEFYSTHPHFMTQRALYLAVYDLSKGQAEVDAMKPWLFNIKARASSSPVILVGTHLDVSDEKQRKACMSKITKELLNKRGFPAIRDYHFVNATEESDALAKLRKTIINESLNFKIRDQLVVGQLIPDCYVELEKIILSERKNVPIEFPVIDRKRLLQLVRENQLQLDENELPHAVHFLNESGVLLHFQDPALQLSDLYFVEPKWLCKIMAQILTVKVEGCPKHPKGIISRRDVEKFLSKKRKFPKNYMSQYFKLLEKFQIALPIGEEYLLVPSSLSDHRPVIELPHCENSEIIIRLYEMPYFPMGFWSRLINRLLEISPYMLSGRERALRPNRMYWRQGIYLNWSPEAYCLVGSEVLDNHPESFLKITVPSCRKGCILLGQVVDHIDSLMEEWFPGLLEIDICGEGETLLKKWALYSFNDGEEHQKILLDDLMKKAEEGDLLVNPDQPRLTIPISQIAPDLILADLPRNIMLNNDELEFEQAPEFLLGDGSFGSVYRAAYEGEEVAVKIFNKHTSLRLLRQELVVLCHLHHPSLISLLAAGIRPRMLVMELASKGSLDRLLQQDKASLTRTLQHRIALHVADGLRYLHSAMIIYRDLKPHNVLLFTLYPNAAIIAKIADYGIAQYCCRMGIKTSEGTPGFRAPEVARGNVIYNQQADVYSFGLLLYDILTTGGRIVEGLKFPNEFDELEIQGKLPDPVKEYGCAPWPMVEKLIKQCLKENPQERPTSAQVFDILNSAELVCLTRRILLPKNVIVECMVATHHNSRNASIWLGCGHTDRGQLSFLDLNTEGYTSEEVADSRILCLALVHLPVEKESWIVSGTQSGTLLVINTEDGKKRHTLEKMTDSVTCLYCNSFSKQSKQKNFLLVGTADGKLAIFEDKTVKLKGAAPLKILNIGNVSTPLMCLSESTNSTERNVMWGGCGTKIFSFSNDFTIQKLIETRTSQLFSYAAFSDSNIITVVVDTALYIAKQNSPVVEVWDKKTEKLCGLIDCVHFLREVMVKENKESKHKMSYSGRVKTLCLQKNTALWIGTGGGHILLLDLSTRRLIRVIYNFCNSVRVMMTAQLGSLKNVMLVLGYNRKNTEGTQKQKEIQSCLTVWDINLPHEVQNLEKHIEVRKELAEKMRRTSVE
Sequence of LRRK2 (G2019S) (Q5S007 970-2527 G2019S limits assumed): as the sequence (Q5S007 970-2527 limits assumed) above, with G1050S counted along it

Row | GI50 (MDA-MB-468 cell line) [µM] | IC50 (LRRK2) [µM] | IC50 (LRRK2 (G2019S)) [µM] | IC50 [1] [µM] | IC50 (human GST-CLK1 (129-end)) [µM] | GI50 (THP-1) [µM] | GI50 (MDA-MB-231 cell line) [µM] | GI50 (SHP-77) [µM] | Compound | inhibition at 0.5 µM (TNF-α) [%] | inhibition at 0.5 µM (IL-6) [%]
1 | 0.051 to 0.1 | < 0.1 | < 0.1 | 0.301 to 1 | 0.301 to 1 | – | – | – | N#Cc1c[nH]c2nc(Nc3ccc(C(=O)N4CCOCC4)c4c3OCCO4)cc(NC3CCCC3)c12 [Example 112, 4-(cyclopentylamino)-6-((8-(morpholine-4-carbonyl)-2,3-dihydrobenzo[b] [1,4]dioxin-5-yl)amino)-1H-pyrrolo[2,3-b]pyridine-3-carbonitrile] | – | –
2 | – | < 0.1 | 0.101 to 0.3 | < 0.1 | < 0.1 | 14.4 | – | – | CCNc1cc(Nc2ccc(C(=O)N3CCOCC3)c3c2OCCO3)nc2[nH]cc(C(F)(F)F)c12 [Example 153, (8-((4-(ethylamino)-3-(trifluoromethyl)-1H-pyrrolo[2,3-b]pyridin-6-yl)amino)-2,3-dihydrobenzo[b] [1,4]dioxin-5-yl)(morpholino) methanone] | 40.4 | 32.7
3 | 0.101 to 0.3 | – | – | 0.301 to 1 | 0.301 to 1 | – | 0.051 to 0.1 | 0.051 to 0.1 | COc1cc(S(=O)(=O)N2CCC(N3CCOCC3)CC2)ccc1Nc1cc(NC2CCCCC2)c2c(C#N)c[nH]c2n1 [Example 151, N^4-(cyclohexylamino)-N^6-((2-methoxy-4-((4-morpholinopiperidin-1-yl)sulfonyl)phenyl)amino)-1H-pyrrolo[2,3-b]pyridine-3-carbonitrile] | – | –
